In publication PMC9916658, “Design and Synthesis of New Quinazolin-4-one Derivatives with Negative mGlu7 Receptor Modulation Activity and Antipsychotic-Like Properties” (International Journal of Molecular Sciences, 2023):

Tests used:
human mGlu4 receptor = target: T1, human mGlu4 receptor (Homo sapiens, UniProt Q14833); assay: mGlu4 receptor selectivity, cAMP accumulation screening at 10 µM; type: cell-based
T1 construct: expressed in transfected cells; host or cells: T-REx 293 (tetracycline-inducible)
Procedure: (§1) The cell lines with the tetracycline-inducible expression of human metabotropic receptors 4, 7, and 8 were described in detail by Chruścicka et al. (mGlu4 receptor NM_000841, mGlu7 receptor NM_000844.2, and mGlu8 receptor NM_000845). Cells were grown under standard cell culture conditions (37 °C, 5% CO2) in DMEM supplemented with 10% tetracycline-free FBS. The expression was induced through the addition of tetracycline to the culture medium at 0.75 μg/mL.
(§2) The determination of the intracellular cAMP through homogeneous time-resolved fluorescence (HTRF) was described in detail previously. […] The intracellular concentration of cyclic AMP was measured by means of a cAMP Gi HTRF kit from Cisbio, according to the manufacturer’s instructions. After 1 h of incubation at room temperature, the fluorescence at 620 nm and 665 nm was read (Tecan Infinite M1000). The results were calculated as the 665 nm/620 nm ratio multiplied by 10^4. […] Data were analyzed using GraphPad Prism version 5.04 for Windows (GraphPad Software, San Diego, USA).
(§3) Firstly, all compounds were screened at 10 μM using three cell lines expressing the mGlu4/7/8 receptor to evaluate selectivity. […] For compounds that passed the screening procedure, the dose–response curve in the presence of LSP4-2022 in 5 μM was evaluated compared to reference NAM ADX71743. […]

naïve mice = assay: Spontaneous locomotor activity of naïve mice; type: in vivo; conditions: compound alone
[1] = test system: prepulse inhibition in rats; assay: Prepulse inhibition test; type: in vivo
choice accuracy in rats = assay: Spatial delayed alternation test; type: in vivo
human mGlu8 receptor = target: T2, human mGlu8 receptor (Homo sapiens, UniProt O00222); assay: mGlu8 receptor selectivity, cAMP accumulation screening at 10 µM; type: cell-based; conditions: group III mGlu receptors
T2 construct: expressed in transfected cells; host or cells: T-REx 293 (tetracycline-inducible)
Procedure: as §1, §2, §3

[2] = test system: recognition index in mice; assay: Novel object recognition test; type: in vivo
Procedure: This procedure was adapted from and performed as described in a previous paper. Habituation, training and test trials were performed in a black plastic rectangular arena (40 × 30 × 35 cm) illuminated with a light intensity of 335 lux. During the habituation trial (2 consecutive days), each animal was allowed to explore the arena for 10 min. The next day, during the training trial (T1), mice were placed in the arena and were presented with two identical objects (red glass cylinders; 6.5 cm in diameter and 4.5 cm high) for 5 min. After 1 h, animals were placed back into the arena for a 5 min test trial, during which one of the previously presented familiar objects was replaced with a novel object (a transparent glass elongated sphere-like object with an orange cap; 5.5 cm in diameter and 8.5 cm high). Time spent exploring (i.e., sniffing or touching) the familiar (Tfamiliar) and novel (Tnovel) objects was measured by a trained observer, and the recognition index (%) was calculated for each mouse [(Tnovel − Tfamiliar)/(Tfamiliar + Tnovel)] “×” 100.

[3] = Pharmacokinetics of ALX-171 after i.v. and p.o. administration; type: in vivo; conditions: mouse, female BALB/c mice

T1 sequence (Q14833 33-912): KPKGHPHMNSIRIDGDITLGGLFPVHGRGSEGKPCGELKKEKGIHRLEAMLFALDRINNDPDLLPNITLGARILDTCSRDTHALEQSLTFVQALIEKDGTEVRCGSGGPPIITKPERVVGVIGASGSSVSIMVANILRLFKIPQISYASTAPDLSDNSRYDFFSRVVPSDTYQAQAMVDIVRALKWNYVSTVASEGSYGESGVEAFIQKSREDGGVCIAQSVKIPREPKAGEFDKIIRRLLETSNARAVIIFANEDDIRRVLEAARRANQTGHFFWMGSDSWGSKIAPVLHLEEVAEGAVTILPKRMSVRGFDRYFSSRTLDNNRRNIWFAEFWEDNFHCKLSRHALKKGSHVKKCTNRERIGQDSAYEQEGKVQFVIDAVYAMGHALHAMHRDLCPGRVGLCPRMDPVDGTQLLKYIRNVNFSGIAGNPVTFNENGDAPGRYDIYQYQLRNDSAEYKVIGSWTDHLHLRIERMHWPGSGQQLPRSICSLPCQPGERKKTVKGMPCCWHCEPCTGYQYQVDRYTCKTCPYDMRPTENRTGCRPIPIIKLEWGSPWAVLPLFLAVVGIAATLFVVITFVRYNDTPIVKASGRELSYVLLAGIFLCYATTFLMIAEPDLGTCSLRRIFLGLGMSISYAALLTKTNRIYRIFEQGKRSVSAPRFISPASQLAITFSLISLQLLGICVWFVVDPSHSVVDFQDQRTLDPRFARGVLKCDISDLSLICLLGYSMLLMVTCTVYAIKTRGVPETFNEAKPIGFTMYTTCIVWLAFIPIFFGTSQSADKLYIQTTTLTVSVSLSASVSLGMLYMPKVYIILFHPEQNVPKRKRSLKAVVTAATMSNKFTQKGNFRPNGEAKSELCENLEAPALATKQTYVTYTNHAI
T2 sequence (O00222 34-908): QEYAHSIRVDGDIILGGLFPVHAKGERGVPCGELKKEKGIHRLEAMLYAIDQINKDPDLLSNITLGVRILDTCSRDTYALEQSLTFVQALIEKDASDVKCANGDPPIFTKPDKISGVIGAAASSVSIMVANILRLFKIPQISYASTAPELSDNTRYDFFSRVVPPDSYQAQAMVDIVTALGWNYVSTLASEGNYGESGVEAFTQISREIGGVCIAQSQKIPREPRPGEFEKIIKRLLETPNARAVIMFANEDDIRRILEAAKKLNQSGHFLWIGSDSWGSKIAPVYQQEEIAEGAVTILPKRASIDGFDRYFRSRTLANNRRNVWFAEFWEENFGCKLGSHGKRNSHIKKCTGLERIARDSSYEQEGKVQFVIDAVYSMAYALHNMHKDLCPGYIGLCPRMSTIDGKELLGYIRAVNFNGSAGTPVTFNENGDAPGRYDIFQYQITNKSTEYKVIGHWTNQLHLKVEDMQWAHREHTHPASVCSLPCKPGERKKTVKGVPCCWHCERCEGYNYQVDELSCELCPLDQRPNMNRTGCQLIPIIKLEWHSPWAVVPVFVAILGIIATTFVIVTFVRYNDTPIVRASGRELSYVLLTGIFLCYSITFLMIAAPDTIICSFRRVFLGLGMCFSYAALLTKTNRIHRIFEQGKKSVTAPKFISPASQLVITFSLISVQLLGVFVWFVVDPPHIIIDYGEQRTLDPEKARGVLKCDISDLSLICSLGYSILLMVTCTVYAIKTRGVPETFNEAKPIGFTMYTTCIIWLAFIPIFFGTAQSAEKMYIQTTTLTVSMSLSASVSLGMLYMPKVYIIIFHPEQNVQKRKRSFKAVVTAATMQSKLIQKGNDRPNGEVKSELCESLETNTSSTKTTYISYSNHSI

## Cn1c(-c2ccccc2Cl)nc2ccc(-c3ccccc3)cc2c1=O [ALX-065, 2-(2-chlorophenyl)-3-methyl-6-phenylquinazolin-4(3H)-one]
Human mGlu4 receptor; at 10 µM
  mGlu4 NAM activity: 19.6%

## COc1cccc(-c2ccc3nc(-c4ccccc4Cl)n(C)c(=O)c3c2)c1OC [ALX-171, 2-(2-chlorophenyl)-6-(2,3-dimethoxyphenyl)-3-methylquinazolin-4(3H)-one]
naïve mice
  spontaneous locomotor activity: no effect
[1]; any of the investigated doses
  MK-801-induced decrease of prepulse inhibition: no effect
[1]; highest investigated dose 10 mg/kg
  disturbance of the PPI response, compound alone: ~ 50%
Human mGlu4 receptor; group III mGlu receptors
  selectivity over mGlu4: selective
Choice accuracy in rats
  choice accuracy, compound administered alone: no negative effect
Choice accuracy in rats; highest dose tested 5 mg/kg
  MK-801-induced disruptions in the number of alternations: reversed
Human mGlu8 receptor
  selectivity over mGlu8: selective
[2]; mice, 1, 2.5, and 5 mg/kg
  MK-801-induced decrease in the recognition index (NOR): ameliorated
[2]; naïve mice
  recognition index, compound alone (NOR): no significant impact
[3]; iv, brain, i.v. 3 mg/kg
  AUC(0-t): 3.27 µM·h
  Cmax: 1850 nM
  Tmax: 0.25 h
  half-life: 3.41 h
[3]; iv, plasma, i.v. 3 mg/kg
  AUC(0-t): 2.91 µM·h
  Cmax: 1590 nM
  Tmax: 0.25 h
  Vd: 7.63 L/kg
  half-life: 2.26 h
[3]; plasma, oral, p.o. 5 mg/kg vs i.v. 3 mg/kg, read-out: F (peroral bioavailability)
  bioavailability: 58%
[3]; po, brain, p.o. 5 mg/kg
  AUC(0-t): 2.97 µM·h
  Cmax: 1360 nM
  Tmax: 0.5 h
  half-life: 2.95 h
[3]; po, plasma, p.o. 5 mg/kg
  AUC(0-t): 2.63 µM·h
  Cmax: 1090 nM
  Tmax: 0.5 h
  half-life: 3.08 h
